Assay results published in paper PMC6978316, “Development of chimeric peptides to facilitate the neutralisation of lipopolysaccharides during bactericidal targeting of multidrug-resistant Escherichia coli” (Communications Biology, 2020).
Where a SMILES comes first, the peptide text is derived from it. Bridges are numbered along the chain shown (N, C = ends).

Columns and labels:
MDR E. coli CVCC195 = test: Time-killing curves (bactericidal kinetics); format: cell-based, Escherichia coli; settings: 1 × or 2 × MIC, MHB, 37 °C
Description: The bactericidal effect of peptides was investigated according to previous methods. […] Physiological saline was added as a control. Bacterial samples (100 μl) were removed at different time points (0, 0.5, 1, 2, 4, 6, 8, 10, and 12 h) and were counted on MH solid plates. The time-killing curve of A6 and G6 was plotted.

E. coli LPS [1] = test: BODIPY-TR-cadaverine (BC) displacement assay; format: binding, Escherichia coli; settings: 100 μM
Description: The affinity of SCPs (A6, G6, and N6) to E. coli LPS was detected by the fluorescent BC probe. The binding of fluorescent probe with LPS can cause fluorescence quenching. When peptides bind to LPS, BC probe can be replaced, which can result in an increase in fluorescence. Equal volumes of LPS (40 μg per ml) and BC probe (10 μM) in 50 mM Tris buffer (pH 7.4) were mixed and added into a black 96-well microtiter plate (180 μl mixture per well), followed by the addition of different concentrations of A6, G6, or N6 (20 μl per well). Ampicillin and PMB were used as the negative and positive control, respectively. Changes in fluorescence were measured by a fluorescence spectrophotometry at room temperature (excitation: 580 nm, emission: 620 nm) and the BC displacement rate was calculated.

E. coli LPS [2] = test: Sepsis mouse model, survival after lethal LPS challenge; format: in vivo, ICR mice; settings: mice, LPS 13.5 mg per kg i.p., 7 d, n = 5; for survival rate: 0.0625 μmol per kg; for mouse survival: 0.125 μmol per kg
Description: The mouse survival was recorded for 7 d. The mice injected with LPS or saline were used as negative or blank controls, respectively.

[3] = tested on: Intestinal alkaline phosphatase (IAP); test: IAP level in duodenum of LPS-challenged mice; format: in vivo; settings: duodenum homogenate, peptides 0.25 μmol per kg, PMB 10 μmol per kg, LPS alone 10.2985, CK 14.2257, n = 3
Description: The mice were intraperitoneally injected with LPS at an absolute LD100 and then were treated with 0.25 μmol per kg peptides (A6, G6 and N6) or 10 μmol per kg PMB at 0.5 h after challenge. The mice were sacrificed at 2 h and the sera were collected to detect inflammatory cytokines (including TNF-α, IL-6 and IL-10) using ELISA kits. To visualize IAP activity, the duodenum was rapidly excised from the mice and was homogenized; the IAP levels in the superpants were detected as described in the Supplementary Information. […]
114 Effects of SCPs on inflammatory cytokines and IAP. The serum sample (50 μl) was added into
115 each well of the plate; 50 μl of TNF-α, IL-I, IL-10 or IAP standard, control and test samples were then
116 added to each well of the plate, followed by placing the latex film on the shaker and incubation for 2
117 h at room temperature. After discarding the liquid in the well, the enzyme labeling plate was placed in
118 a 400 μl washing solution in the washing machine for 4 times; the enzyme labeling plate is inverted
119 and tapped on a clean paper towel so that there was no residual liquid in each hole . Mouse TNF-α，
120 IL-I，IL10 or IAP Conjugate (HRP Conjugate Detection Ab) working solution (100 μl) was added to
121 each well of the plate (diluted 1:100 before the test); the latex film was placed on the shaker and
122 incubated for 2 h at room temperature. After discarding the liquid in the well, the enzyme labeling
123 plate was placed in a 400 μl washing solution in the washing machine for 4 times, then the enzyme
124 labeling plate is inverted, and tapped on a clean paper towel so that there is no residual liquid in each
125 hole. Substrate Solution (100 μl) was added to each well of the plate and incubated at room
126 temperature for 30 min in the dark. Finally, 100 μl of Stop Solution (2N sulfuric acid solution) was
127 added to each well of the plate and gently mixed the plate to stop the reaction. The optical density
128 value was read by placing the microplate in a microplate reader for 30 min with the reading
129 wavelength of 450 nm and the calibration wavelength of 570 nm.
131 1. Kaplan, C. W., et al. Selective membrane disruption: mode of action of C16G2, a specifically
133 2. Eckert, R., et al. Adding selectivity to antimicrobial peptides: rational design of a multidomain
134 peptide against Pseudomonas spp. Antimicrob Agents Chemother. 50(4), 1480–1488 (2006).
135 3. Eckert, R., et al. Targeted killing of Streptococcus mutans by a pheromone-guided "smart"

ERK1/2 phosphorylation = test: Western blotting of lung tissues, p-ERK1/2/ERK1/2; format: in vivo, mice; settings: for densitometric analysis of p-ERK1/2/ERK1/2 ratio: LPS + substance, Mean; for attenuation of ERK1/2 phosphorylation: lung tissue 8 h, LPS 13.5 mg per kg, western blotting, densitometry
Description: Additionally, the mice were sacrificed at 8 h and the lung tissues were homogenized and suspended in […] HEPES buffer for 20 min according to standard procedures. After centrifugation at 4 °C for 20 min (12,000 rpm), the protein levels of supernatants were quantified using a Bradford protein assay kit. A total of 30 μg proteins were analyzed on an 8–12% sodium dodecyl sulfate-polyacrylamide gel electrophoresis (SDS-PAGE) gel and were immunoblotted onto PVDF membranes, followed by an incubation with the primary antibodies of p65, p-p65, extracellular signal-regulated kinase (ERK)1/2, p-ERK1/2, and IκBα overnight at 4 °C. After washing, the blots were incubated with the peroxidase conjugated goat-rabbit or goat-mouse antibodies. Relative protein expression levels were quantified by a densitometric measurement of chemiluminescence (ECL) reaction band. β-actin was used as the internal reference.

LPS-induced lung injury = test: Protection of lung tissues from LPS (histology); format: in vivo; settings: LPS-challenged mice, 0.25 μmol per kg
Description: The mice were treated with N6 (0.25 μmol per kg), A6 (0.25 μmol per kg), G6 (0.25 μmol per kg), and PMB (10 μmol per kg), respectively after the intraperitoneal injection of LPS at a concentration of LD100. The lung tissues were taken at 1 d and 6 d, respectively, washed with PBS and placed in 4% paraformaldehyde for 24 h at 4 °C. After washing with PBS, the tissues were dehydrated by a series of different concentrations of ethanol (75%, 85%, 90%, and 95%) and were immersed in xylene for paraffin embedding. After sectioning, the samples were stained with hematoxylin and were observed by a light microscope. The mice challenged with LPS and PBS served as the negative and blank control, respectively.

Compound | time to completely kill E. coli CVCC195 (MDR E. coli CVCC195) | BC displacement ratio (E. coli LPS [1]) | survival (E. coli LPS [2]; 10 μmol per kg) | IAP, Mean [3] | densitometric analysis of p-ERK1/2/ERK1/2 ratio (ERK1/2 phosphorylation) | attenuation of ERK1/2 phosphorylation (ERK1/2 phosphorylation) | survival rate (E. coli LPS [2]) | mouse survival (E. coli LPS [2]) | lung histology at 1 d (LPS-induced lung injury) | lung histology at 6 d (LPS-induced lung injury) | survival (E. coli LPS [2]; 0.25 μmol per kg)
polymyxin B [PMB] | ≤ 1 h | 83.7% | All mice survived | 13.0879 | 1.579 | moderately promoted the ERK1/2 phosphorylation |  |  |  |  | 
H-RVQGRWKVRASFFKEAAAKEAAAKGFAWNVCVYRNGVRVCHRRAN-OH (disulfide 31-40) [A6] | ≤ 1 h | 100% |  | 11.893 | 1.795 | moderately promoted the ERK1/2 phosphorylation | 60% | 100% | partial alleviation of tissue swelling and injury | no pathological changes | 
CC(C)[C@@H]1NC(=O)CNC(=O)[C@H](CC(N)=O)NC(=O)[C@H](CCCNC(=N)N)NC(=O)[C@H](Cc2ccc(O)cc2)NC(=O)[C@H](C(C)C)NC(=O)[C@@H](NC(=O)[C@@H](NC(=O)[C@H](CC(N)=O)NC(=O)[C@H](Cc2c[nH]c3ccccc23)NC(=O)[C@H](C)NC(=O)[C@H](Cc2ccccc2)NC(=O)CN)C(C)C)CSSC[C@@H](C(=O)N[C@@H](Cc2c[nH]cn2)C(=O)N[C@@H](CCCNC(=N)N)C(=O)N[C@@H](CCCNC(=N)N)C(=O)N[C@@H](C)C(=O)N[C@@H](CC(N)=O)C(=O)O)NC(=O)[C@H](C(C)C)NC(=O)[C@H](CCCNC(=N)N)NC1=O [N6] (H-GFAWNVCVYRNGVRVCHRRAN-OH; disulfide 7-16; N-terminus and C-terminus assumed) | 4 h | 90.5% |  | 10.7594 | 0.9271 | 16.1% |  | 60% | partial alleviation of tissue swelling and injury | no pathological changes | All mice survived
CC(C)[C@@H]1NC(=O)CNC(=O)[C@H](CC(N)=O)NC(=O)[C@H](CCCNC(=N)N)NC(=O)[C@H](Cc2ccc(O)cc2)NC(=O)[C@H](C(C)C)NC(=O)[C@@H](NC(=O)[C@@H](NC(=O)[C@H](CC(N)=O)NC(=O)[C@H](Cc2c[nH]c3ccccc23)NC(=O)[C@H](C)NC(=O)[C@H](Cc2ccccc2)NC(=O)CNC(=O)[C@H](CO)NC(=O)CNC(=O)CNC(=O)CNC(=O)CNC(=O)[C@H](CCCCN)NC(=O)[C@H](Cc2ccccc2)NC(=O)[C@H](Cc2ccccc2)NC(=O)[C@H](CO)NC(=O)[C@H](C)NC(=O)[C@H](CCCNC(=N)N)NC(=O)[C@@H](NC(=O)[C@H](CCCCN)NC(=O)[C@H](Cc2c[nH]c3ccccc23)NC(=O)[C@H](CCCNC(=N)N)NC(=O)CNC(=O)[C@H](CCC(N)=O)NC(=O)[C@@H](NC(=O)[C@@H](N)CCCNC(=N)N)C(C)C)C(C)C)C(C)C)CSSC[C@@H](C(=O)N[C@@H](Cc2c[nH]cn2)C(=O)N[C@@H](CCCNC(=N)N)C(=O)N[C@@H](CCCNC(=N)N)C(=O)N[C@@H](C)C(=O)N[C@@H](CC(N)=O)C(=O)O)NC(=O)[C@H](C(C)C)NC(=O)[C@H](CCCNC(=N)N)NC1=O [G6] (H-RVQGRWKVRASFFKGGGGSGFAWNVCVYRNGVRVCHRRAN-OH; disulfide 26-35) | ≤ 1 h | 100% |  | 11.4812 | 0.1248 | 88.2% | 80% | 100% | partial alleviation of tissue swelling and injury | no pathological changes | 
